Assay results: paper PMC6839502 (Journal of Alzheimer's Disease, 2019)
Where two headings read alike, the source gives them in different places.

How the values were obtained:
BACE1 over CatD = conditions: cited from earlier work
[1] = cited from earlier work
[2] = test system: fur, hair and skin pigmentation; conditions: cited from earlier work; for Fur and skin pigmentation: mice, rats, or dogs following chronic dosing regimens
CSF Aβ = conditions: cited from earlier work; for Reduction in CSF Aβ: healthy older subjects; for Reduction of CSF Aβ40: healthy adults and older subjects combined; for Average reduction of steady state CSF Aβ40: mild-to-moderate AD patients
BACE1 over BACE2 = conditions: cited from earlier work
[3] = Safety and tolerability in study B8271007; type: in vivo, human; conditions: single oral dose of 2 mg midazolam alone (period 1)

SMILES: CC#Cc1cncc(-c2ccc3c(c2)[C@@]2(N=C(C)C(N)=N2)[C@]2(CC[C@H](OC)CC2)C3)c1 [AZD3293]
- Selectivity for BACE1 over CatD (BACE1 over CatD): good selectivity
- Liver toxicity in clinical studies [1]: liver toxicity was not reported
- Hair depigmentation ([2]; animal studies): hair depigmentation
- Fur and skin pigmentation [2]: fur and skin pigment loss
- Reduction in CSF Aβ (CSF Aβ; 15 mg QD): approximately 51%
- Reduction in CSF Aβ (CSF Aβ; 50 mg QD): ~76%

SMILES: C[C@@]1(c2nc(NC(=O)c3ncc(C(F)(F)F)cc3Cl)ccc2F)CO[C@@](C)(C(F)(F)F)C(N)=N1 [CNP520]
- Liver toxicity in clinical studies [1]: liver toxicity was not reported
- Selectivity for BACE1 over BACE2 in vitro (BACE1 over BACE2): 3 fold
- Hair depigmentation ([2]; long-term treatment in mice or dogs): did not result in any hair depigmentation

SMILES: C[C@@]1(c2cc(NC(=O)c3ccc(C#N)cn3)ccc2F)C=CSC(N)=N1 [JNJ-54861911]
- Liver toxicity in clinical studies ([1]; Phase II and Phase IIb/III studies): concerns over abnormal liver enzymes leading to the termination
- Reduction of CSF Aβ40 (CSF Aβ; 5 mg QD): approximately 50%
- Reduction of CSF Aβ40 (CSF Aβ; 25 mg QD): ~80%

SMILES: NC1=N[C@@]2(c3cc(NC(=O)c4ccc(F)cn4)ccc3F)COC[C@H]2CS1 [LY2886721]
- Liver toxicity in clinical studies ([1]; Phase II study): concerns over abnormal liver enzymes leading to the termination

SMILES: CN1C(=N)N[C@](C)(c2cc(NC(=O)c3ccc(F)cn3)ccc2F)CS1(=O)=O [MK-8931]
- Liver toxicity in clinical studies [1]: liver toxicity was not reported
- Hair depigmentation ([2]; animal studies): hair depigmentation
- Average reduction of steady state CSF Aβ40 (CSF Aβ; 12 mg QD): 57%
- Average reduction of steady state CSF Aβ40 (CSF Aβ; 40 mg QD): 79%

SMILES: Cc1cc(C#N)cnc1C(=O)Nc1ccc(F)c([C@]2(C)CO[C@@](C)(C(F)(F)F)C(N)=N2)c1 [NB-360]
- Fur and skin pigmentation [2]: fur and skin pigment loss

SMILES: Cc1ncc2n1-c1ccc(Cl)cc1C(c1ccccc1F)=NC2 [midazolam, reference compound]
- TEAEs deemed treatment related [3]: none
- TEAEs reported [3]: three
